Test system: K12877-001-R-J1-PDC complex spheroid viability
Assay: Anticancer human tumor K12877-001-R-J1-PDC patient-derived lung adenocarcinoma cell line growth inhibition [RAS]
Conditions: for IC50: curve of first compound; for viability, T/C: stronger effect = lower value; active = viability on the fitted dose curve at most 10% of control; inactive = the rest
Outline: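 Tumour cells grown as complex spheroids with HUVEC endothelial cells and mesenchymal stem cells, treated with RAS pathway inhibitor combinations. Each agent spans half-log steps from near clinical Cmax, or 10 microM where Cmax is unknown.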

[1] = second compound 0.000949 µM, first compound 0.000949 µM
[2] = second compound 0.000949 µM, first compound 0.003 µM
[3] = second compound 0.000949 µM, first compound 0.00949 µM
[4] = second compound 0.000949 µM, first compound 0.03 µM
[5] = second compound 0.000949 µM, first compound 0.0949 µM
[6] = second compound 0.000949 µM, first compound 0.3 µM
[7] = second compound 0.003 µM, first compound 0.000949 µM
[8] = second compound 0.003 µM, first compound 0.003 µM
[9] = second compound 0.003 µM, first compound 0.00949 µM
[10] = second compound 0.003 µM, first compound 0.03 µM
[11] = second compound 0.003 µM, first compound 0.0949 µM
[12] = second compound 0.003 µM, first compound 0.3 µM
[13] = second compound 0.00949 µM, first compound 0.000949 µM
[14] = second compound 0.00949 µM, first compound 0.003 µM
[15] = second compound 0.00949 µM, first compound 0.00949 µM
[16] = second compound 0.00949 µM, first compound 0.03 µM
[17] = second compound 0.00949 µM, first compound 0.0949 µM
[18] = second compound 0.00949 µM, first compound 0.3 µM
[19] = second compound 0.03 µM, first compound 0.000949 µM
[20] = second compound 0.03 µM, first compound 0.003 µM
[21] = second compound 0.03 µM, first compound 0.00949 µM
[22] = second compound 0.03 µM, first compound 0.03 µM
[23] = second compound 0.03 µM, first compound 0.0949 µM
[24] = second compound 0.03 µM, first compound 0.3 µM
[25] = second compound 0.0949 µM, first compound 0.000949 µM
[26] = second compound 0.0949 µM, first compound 0.003 µM
[27] = second compound 0.0949 µM, first compound 0.00949 µM
[28] = second compound 0.0949 µM, first compound 0.03 µM
[29] = second compound 0.0949 µM, first compound 0.0949 µM
[30] = second compound 0.0949 µM, first compound 0.3 µM
[31] = second compound 0.3 µM, first compound 0.000949 µM
[32] = second compound 0.3 µM, first compound 0.003 µM
[33] = second compound 0.3 µM, first compound 0.00949 µM
[34] = second compound 0.3 µM, first compound 0.03 µM
[35] = second compound 0.3 µM, first compound 0.0949 µM
[36] = second compound 0.3 µM, first compound 0.3 µM
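Also: spheroids exposed to agents for one week before readout.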
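For viability, T/C in this document: tumour cells co-cultured with HUVEC and mesenchymal stem cells in spheroids.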

C=CC(=O)N1CCN(c2nc(OCC3CCCN3C)nc3c(F)c(-c4nc(N)cc(C)c4C(F)(F)F)c(Cl)cc23)C(C)C1 (stereo unspecified) + CCn1c(-c2cc(N3CCN(C)CC3)cnc2C(C)OC)c2c3cc(ccc31)-c1csc(n1)CC(NC(=O)C1CC1C)C(=O)N1CCCC(N1)C(=O)OCC(C)(C)C2
inactive: viability, T/C (second compound 0.000949 µM, first compound 0.00316 µM) 80.8% | viability, T/C (second compound 0.000949 µM, first compound 0.01 µM) 71.5% | viability, T/C (second compound 0.000949 µM, first compound 0.0316 µM) 78.4% | viability, T/C (second compound 0.000949 µM, first compound 0.1 µM) 69.2% | viability, T/C (second compound 0.000949 µM, first compound 0.316 µM) 69.5% | viability, T/C (second compound 0.000949 µM, first compound 1 µM) 68% | viability, T/C (second compound 0.003 µM, first compound 0.00316 µM) 66.2% | viability, T/C (second compound 0.003 µM, first compound 0.01 µM) 66.7% | viability, T/C (second compound 0.003 µM, first compound 0.0316 µM) 66.4% | viability, T/C (second compound 0.003 µM, first compound 0.1 µM) 60.6% | viability, T/C (second compound 0.003 µM, first compound 0.316 µM) 62.7% | viability, T/C (second compound 0.003 µM, first compound 1 µM) 67% | viability, T/C (second compound 0.00949 µM, first compound 0.00316 µM) 69.7% | viability, T/C (second compound 0.00949 µM, first compound 0.01 µM) 62% | viability, T/C (second compound 0.00949 µM, first compound 0.0316 µM) 70.1% | viability, T/C (second compound 0.00949 µM, first compound 0.1 µM) 76.1% | viability, T/C (second compound 0.00949 µM, first compound 0.316 µM) 63.6% | viability, T/C (second compound 0.00949 µM, first compound 1 µM) 58.2% | viability, T/C (second compound 0.03 µM, first compound 0.00316 µM) 93.4% | viability, T/C (second compound 0.03 µM, first compound 0.01 µM) 84.5% | viability, T/C (second compound 0.03 µM, first compound 0.0316 µM) 92.3% | viability, T/C (second compound 0.03 µM, first compound 0.1 µM) 81.2% | viability, T/C (second compound 0.03 µM, first compound 0.316 µM) 81.2% | viability, T/C (second compound 0.03 µM, first compound 1 µM) 97.2% | viability, T/C (second compound 0.0949 µM, first compound 0.00316 µM) 116% | viability, T/C (second compound 0.0949 µM, first compound 0.01 µM) 95.8% | viability, T/C (second compound 0.0949 µM, first compound 0.0316 µM) 101% | viability, T/C (second compound 0.0949 µM, first compound 0.1 µM) 102% | viability, T/C (second compound 0.0949 µM, first compound 0.316 µM) 97.6% | viability, T/C (second compound 0.0949 µM, first compound 1 µM) 98% | viability, T/C (second compound 0.3 µM, first compound 0.00316 µM) 96.8% | viability, T/C (second compound 0.3 µM, first compound 0.01 µM) 93.4% | viability, T/C (second compound 0.3 µM, first compound 0.0316 µM) 90.7% | viability, T/C (second compound 0.3 µM, first compound 0.1 µM) 88.6% | viability, T/C (second compound 0.3 µM, first compound 0.316 µM) 84.3% | viability, T/C (second compound 0.3 µM, first compound 1 µM) 91.1%
> 1000 nM: IC50 (second compound 0.000949 µM) | IC50 (second compound 0.003 µM) | IC50 (second compound 0.00949 µM) | IC50 (second compound 0.03 µM) | IC50 (second compound 0.0949 µM) | IC50 (second compound 0.3 µM)

CC1(C)CCC(Nc2ncc(C(F)(F)F)c(-c3c[nH]c4c(P(C)(C)=O)c(C#N)ccc34)n2)CN1 (stereo unspecified) + CCn1c(-c2cc(N3CCN(C)CC3)cnc2C(C)OC)c2c3cc(ccc31)-c1csc(n1)CC(NC(=O)C1CC1C)C(=O)N1CCCC(N1)C(=O)OCC(C)(C)C2
30.8 nM: IC50 (second compound 0.0949 µM)
45.9 nM: IC50 (second compound 0.003 µM)
inactive: viability, T/C [1] 84.8% | viability, T/C [2] 77.5% | viability, T/C [3] 78.1% | viability, T/C [4] 57.4% | viability, T/C [5] 35.8% | viability, T/C [6] 28% | viability, T/C [7] 73.1% | viability, T/C [8] 66.7% | viability, T/C [9] 65.3% | viability, T/C [10] 58% | viability, T/C [11] 37.9% | viability, T/C [12] 29.1% | viability, T/C [13] 68.2% | viability, T/C [14] 71.7% | viability, T/C [15] 61.5% | viability, T/C [16] 50.7% | viability, T/C [17] 31.8% | viability, T/C [18] 32.1% | viability, T/C [19] 76% | viability, T/C [20] 70.6% | viability, T/C [21] 72.4% | viability, T/C [22] 50.8% | viability, T/C [23] 37% | viability, T/C [24] 36.2% | viability, T/C [25] 111% | viability, T/C [26] 113% | viability, T/C [27] 88.6% | viability, T/C [28] 50.5% | viability, T/C [29] 39.5% | viability, T/C [30] 33.5% | viability, T/C [31] 97.8% | viability, T/C [32] 98.7% | viability, T/C [33] 72.6% | viability, T/C [34] 53.8% | viability, T/C [35] 42.2% | viability, T/C [36] 37%
45 nM: IC50 (second compound 0.000949 µM)
32.2 nM: IC50 (second compound 0.03 µM)
27.4 nM: IC50 (second compound 0.00949 µM)
37.6 nM: IC50 (second compound 0.3 µM)

CCc1c2c(nc3ccc(O)cc13)-c1cc3c(c(=O)n1C2)COC(=O)[C@]3(O)CC + CCn1c(-c2cc(N3CCN(C)CC3)cnc2C(C)OC)c2c3cc(ccc31)-c1csc(n1)CC(NC(=O)C1CC1C)C(=O)N1CCCC(N1)C(=O)OCC(C)(C)C2
active: viability, T/C [4] 7.02% | viability, T/C [5] 3.48% | viability, T/C [6] 2.43% | viability, T/C [10] 6.6% | viability, T/C [11] 4.13% | viability, T/C [12] 2.12% | viability, T/C [16] 6.3% | viability, T/C [17] 3.36% | viability, T/C [18] 1.64% | viability, T/C [22] 6.66% | viability, T/C [23] 2.86% | viability, T/C [24] 1.43% | viability, T/C [28] 5.27% | viability, T/C [29] 3.05% | viability, T/C [30] 1.38% | viability, T/C [33] 9.52% | viability, T/C [34] 4.79% | viability, T/C [35] 3.58% | viability, T/C [36] 1.11%
4.39 nM: IC50 (second compound 0.003 µM)
4.82 nM: IC50 (second compound 0.000949 µM)
3.81 nM: IC50 (second compound 0.0949 µM)
3.87 nM: IC50 (second compound 0.00949 µM)
2.73 nM: IC50 (second compound 0.3 µM)
inactive: viability, T/C [1] 78.3% | viability, T/C [2] 72.4% | viability, T/C [3] 18.2% | viability, T/C [7] 67.2% | viability, T/C [8] 68.8% | viability, T/C [9] 13.6% | viability, T/C [13] 71.6% | viability, T/C [14] 59.8% | viability, T/C [15] 15.8% | viability, T/C [19] 84.9% | viability, T/C [20] 67.8% | viability, T/C [21] 11.5% | viability, T/C [25] 94.8% | viability, T/C [26] 59.5% | viability, T/C [27] 13.8% | viability, T/C [31] 85.1% | viability, T/C [32] 46.9%
4.32 nM: IC50 (second compound 0.03 µM)
